{"source": "patent US20140243415A1", "about": "“COMPOUNDS INHIBITING GALECTIN-1 EXPRESSION, CANCER CELL PROLIFERATION, INVASION, AND TUMORIGENESIS” (ONCOETHIX SA, priority 2011, published 2014)", "key": {"[1]": {"test_system": "A2780-1A9 ovarian xenografts", "assay": "A2780-1A9 xenograft model", "format": "in vivo", "procedure": "FIG. 6. […] A—The antitumor effects of OTX-008 on A2780-1A9 xenograft were compared to that of active doses of cisplatin and paclitaxel—solid line represents days of treatment. B—Immunohistochemistry of galectin-1, Ki67 (MIB-1) and CD31 on A2780-1A9 xenograft. C—Tumor growth and secondary tumor formation of SQ20B xenografts untreated and treated with 10 mg/kg/day OTX-008 and SQ-shGAL1 xenografts. Tumor volume was determined as 3.14(width2)/length—solid line represents days of treatment. D—Immunohistochemistry of galectin-1, MIB1, VEGFR2 and CD31 on SQ20B xenografts\nThe immunohistochemical procedure was performed on OCT-embedded subcutaneous tumor stained with H&E, MIB1 ( 1/400, Dako, Glostrup, Denmark), CD31 ( 1/200, Dako), VEGFR2 ( 1/125, Cell Signaling, Saint Quentin Yvelines, France) or galectin-1 (1:20, Abcam, Cambridge, Mass., USA) using an automated immunohistochemical stainer according to the manufacturer's guidelines (streptavidin-peroxidase protocol; Benchmark, Ventana, Tuscon, Ariz., USA). The images were captured and analyzed with a Zeiss observer Z1 microscope. Images quantification was performed using Histolab Software (Microvision, France) subtracting the background. Magnification ×20 and ×40.\nA volume containing 8.10^6 A2780-1A9 cancer cells was injected s.c. into the right lateral flank of female nu/nu athymic mice. When tumors become palpable, mice were randomized and treated i.p. with PBS (3 days per week), 5 mg/kg OTX-008 (3 days per week), 6 mg/kg cisplatin (days 1, 8 and 15) or 10 mg/kg taxotere (days 1, 8 and 15). Tumor size was measured three times per week with caliper and tumor volume was calculated as (length×width^2)/2. At the end of the study, animals were sacrificed and tumors collected and frozen in OCT for molecular biology and immunohistochemical analysis. Mouse experiments were approved by the Animal Housing and Experiment Board of the French government."}, "SQ-shGal1 cells": {"test_system": "SQ-shGal1 cells", "assay": "Antiproliferative effects in galectin-1 silenced cells", "format": "cell-based, human", "conditions": "SQ-shGal1 cells in vitro", "procedure": "Galectin-1 shRNA, Semaphorin-3A shRNA and scrambled shRNA plasmids were purchased from Santa Cruz Biotechnology (Santa Cruz, Calif., USA) and transfected into cells using the manufacturer's shRNA transfection protocol. Briefly, a mix of 1 μg shRNA plasmid DNA solution and lpl shRNA plasmid transfection reagent were incubated 45 minutes at room temperature and then added on 50% confluent cells with shRNA plasmid transfection medium. After 6 hours incubation at 37° C., normal growth medium containing double serum and antibiotics concentration was added. After 24 h, the stably transfected cells were selected with puromycin.\nSQ-shGal1 cells were developed from SQ20B using a small hairpin GAL1-RNA silencing transfection. SQ-shGal1 cells display no difference in cell doubling-time and cloning capacity but expressed lower galectin-1 expression and invasive capacity in matrigel as compared to SQ20B (FIG. 8). […] As shown in FIG. 6C-left, silencing galectin-1 expression in mice was associated with a decreased development of secondary tumors as compared to parental SQ20B tumors. SQ-shGal1 cancer cells in tumors expressed lower level of Ki67 and VEGFR-2 expressions (FIG. 6D)."}, "MCF7-shWISP": {"test_system": "MCF7-shWISP", "assay": "Antiproliferative effects, shWISP model", "format": "cell-based, human", "conditions": "MCF7-shWISP vs MCF7", "from_the_text": "(§1) FIG. 2. Epithelial-to-mesenchymal differentiation and OTX-008 sensitivity. A—Correlations between galectin-1 (LGALS1) and vimentin, E-cadherin (CDH1) and N-cadherin (CDH2) relative mRNA expression. B—Correlations between OTX-008 IC50s and vimentin, E-cadherin (CDH1) and N-cadherin (CDH2) relative mRNA expression. C—Antiproliferative effects of OTX-008 in epithelial COLO205-S and mesenchymal COLO205-R colon cancer cells. D—Antiproliferative effects of OTX-008 in SNAIL-inducible colon cancer cell lines. E—Antiproliferative effects of OTX-008 in shWISP breast cancer cell lines.\n(§2) Cell survival was determined using the MTT assay (3-[4,5-dimethylthiazol-2-yl]-2,5-diphenyltetrazolium bromide; Sigma, Saint-Quentin Fallavier, France). The conversion of yellow water-soluble tetrazolium MTT into purple insoluble formazan is catalyzed by mitochondrial dehydrogenases and used to estimate the number of viable cells. In brief, cells were seeded in 96-well tissue culture plates at a density of 2×10^3 cells/well. […] After incubation, the supernatant was discarded, insoluble formazan precipitates were dissolved in 0.1 ml of DMSO and the absorbance was measured at 560 nm by use of a microplate reader (Thermo, France). […] IC50's were determined as the halves of maximal inhibitory drug concentration for each cell line. […]"}, "[2]": {"test_system": "DLD-1TR21 colon cancer cells", "assay": "Antiproliferative effects, SNAIL-inducible model", "format": "cell-based, human", "conditions": "SNAIL-inducible DLD-1TR21", "from_the_text": "as §1, §2"}}}
{"smiles": "CN(C)CCNC(=O)COc1c2cccc1Cc1cccc(c1OCC(=O)NCCN(C)C)Cc1cccc(c1OCC(=O)NCCN(C)C)Cc1cccc(c1OCC(=O)NCCN(C)C)C2", "note": "[OTX-008]", "values": [{"measurement": "tumor growth", "setting": "[1]; 5 mg/kg OTX-008 i.p., 3 days per week", "result": "Tumor growth inhibition"}, {"measurement": "antitumor effects relative to cisplatin and docetaxel", "setting": "[1]; 5 mg/kg OTX-008 vs 6 mg/kg cisplatin, 10 mg/kg taxotere", "result": "comparable to that of cisplatin and docetaxel"}, {"measurement": "VEGFR-2 expression", "setting": "[1]; A2780-1A9 tumors", "result": "decreased expression of VEGFR-2"}, {"measurement": "number of micro-vessels in tumors", "setting": "[1]; A2780-1A9 tumors", "result": "decreased number of micro-vessel"}, {"measurement": "proliferation as measured by Ki67 expression", "setting": "[1]; A2780-1A9 tumors", "result": "significantly reduced"}, {"measurement": "toxicity at active doses", "setting": "[1]; nude mice", "result": "no toxicity"}, {"measurement": "vessels lumen surface area", "setting": "[1]; vs control", "result": "significant decrease of the surface of vessels"}, {"measurement": "galectin-1 expression in tumors (immunohistochemistry)", "setting": "[1]; vs non treated tumors", "result": "significant lower galectin-1 expression"}, {"measurement": "antiproliferative effects in galectin-1 silenced cells", "setting": "SQ-shGal1 cells", "result": "does not further increase its antiproliferative effects"}, {"measurement": "effect of WISP inhibition on sensitivity", "setting": "MCF7-shWISP", "result": "marked resistance to high concentrations of the drug"}, {"measurement": "effect of SNAIL induction on sensitivity", "setting": "[2]", "result": "no impact on sensitivity"}]}
